Key:
Experiment in all cases: relative viability (nuclei count vs DMSO), 5 days (fraction); higher = more cells survive
CAL-12T = test system: CAL-12T
Procedure, shortened: (§1)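 Lung cancer cell lines, seeded in 1536-well plates, were treated the following day by pin tool with a single drug or with five library-drug doses (not always all listed) in √10 steps on top of a fixed anchor-drug dose. Cells were fixed and nuclei stained in one step after 5 days, and nuclei were counted. Relative viability is the nuclei count for treated wells divided by that for vehicle wells, reported as medians of duplicate plates.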

COR-L 105 = test system: COR-L 105
Procedure, shortened: as §1

ChaGo-K-1 = test system: ChaGo-K-1
Procedure, shortened: as §1

EMC-BAC-2 = test system: EMC-BAC-2
Procedure, shortened: as §1

EPLC-272H = test system: EPLC-272H
Procedure, shortened: as §1

HCC-15 = test system: HCC-15
Procedure, shortened: as §1

HCC-78 = test system: HCC-78
Procedure, shortened: as §1

HOP-62 = test system: HOP-62
Procedure, shortened: as §1

LXF-289 = test system: LXF-289
Procedure, shortened: as §1

NCI-H1666 = test system: NCI-H1666
Procedure, shortened: as §1

NCI-H1755 = test system: NCI-H1755
Procedure, shortened: as §1

NCI-H1915 = test system: NCI-H1915
Procedure, shortened: as §1

NCI-H1975 = test system: NCI-H1975
Procedure, shortened: as §1

NCI-H2023 = test system: NCI-H2023
Procedure, shortened: as §1

NCI-H2085 = test system: NCI-H2085
Procedure, shortened: as §1

NCI-H2126 = test system: NCI-H2126
Procedure, shortened: as §1

NCI-H3122 = test system: NCI-H3122
Procedure, shortened: as §1

NCI-H322M = test system: NCI-H322M
Procedure, shortened: as §1

NCI-H358 = test system: NCI-H358
Procedure, shortened: as §1

NCI-H441 = test system: NCI-H441
Procedure, shortened: as §1

UMC-11 = test system: UMC-11
Procedure, shortened: as §1

## COc1cc2nccc(Oc3ccc(NC(=O)Nc4cc(C)on4)c(Cl)c3)c2cc1OC [Tivozanib] + Nc1nc2[nH]cc(CCc3ccc(C(=O)N[C@@H](CCC(=O)O)C(=O)O)cc3)c2c(=O)[nH]1 [Pemetrexed] (partner 0.2 µM)
CAL-12T; first compound 0.005 µM
  relative viability: 1.25
CAL-12T; first compound 0.01581 µM
  relative viability: 1.15
CAL-12T; first compound 0.05 µM
  relative viability: 1.13
CAL-12T; first compound 0.1581 µM
  relative viability: 1.13
CAL-12T; first compound 0.5 µM
  relative viability: 1.12
COR-L 105; first compound 0.005 µM
  relative viability: 0.919
COR-L 105; first compound 0.01581 µM
  relative viability: 1.08
COR-L 105; first compound 0.05 µM
  relative viability: 1.34
COR-L 105; first compound 0.1581 µM
  relative viability: 1.13
COR-L 105; first compound 0.5 µM
  relative viability: 1.27
ChaGo-K-1; first compound 0.005 µM
  relative viability: 0.235
ChaGo-K-1; first compound 0.01581 µM
  relative viability: 0.271
ChaGo-K-1; first compound 0.05 µM
  relative viability: 0.253
ChaGo-K-1; first compound 0.1581 µM
  relative viability: 0.273
ChaGo-K-1; first compound 0.5 µM
  relative viability: 0.264
EMC-BAC-2; first compound 0.005 µM
  relative viability: 0.463
EMC-BAC-2; first compound 0.01581 µM
  relative viability: 0.465
EMC-BAC-2; first compound 0.05 µM
  relative viability: 0.431
EMC-BAC-2; first compound 0.1581 µM
  relative viability: 0.507
EMC-BAC-2; first compound 0.5 µM
  relative viability: 0.398
EPLC-272H; first compound 0.005 µM
  relative viability: 0.337
EPLC-272H; first compound 0.01581 µM
  relative viability: 0.317
EPLC-272H; first compound 0.05 µM
  relative viability: 0.335
EPLC-272H; first compound 0.1581 µM
  relative viability: 0.284
EPLC-272H; first compound 0.5 µM
  relative viability: 0.288
HCC-15; first compound 0.005 µM
  relative viability: 0.21
HCC-15; first compound 0.01581 µM
  relative viability: 0.224
HCC-15; first compound 0.05 µM
  relative viability: 0.235
HCC-15; first compound 0.1581 µM
  relative viability: 0.226
HCC-15; first compound 0.5 µM
  relative viability: 0.238
HCC-78; first compound 0.005 µM
  relative viability: 0.925
HCC-78; first compound 0.01581 µM
  relative viability: 0.924
HCC-78; first compound 0.05 µM
  relative viability: 0.816
HCC-78; first compound 0.1581 µM
  relative viability: 0.885
HCC-78; first compound 0.5 µM
  relative viability: 0.913
HOP-62; first compound 0.005 µM
  relative viability: 0.353
HOP-62; first compound 0.01581 µM
  relative viability: 0.301
HOP-62; first compound 0.05 µM
  relative viability: 0.245
HOP-62; first compound 0.1581 µM
  relative viability: 0.36
HOP-62; first compound 0.5 µM
  relative viability: 0.232
LXF-289; first compound 0.005 µM
  relative viability: 0.853
LXF-289; first compound 0.01581 µM
  relative viability: 0.9
LXF-289; first compound 0.05 µM
  relative viability: 0.929
LXF-289; first compound 0.1581 µM
  relative viability: 1.04
LXF-289; first compound 0.5 µM
  relative viability: 0.887
NCI-H1666; first compound 0.005 µM
  relative viability: 0.829
NCI-H1666; first compound 0.01581 µM
  relative viability: 0.877
NCI-H1666; first compound 0.05 µM
  relative viability: 0.932
NCI-H1666; first compound 0.1581 µM
  relative viability: 0.797
NCI-H1666; first compound 0.5 µM
  relative viability: 0.75
NCI-H1755; first compound 0.005 µM
  relative viability: 0.376
NCI-H1755; first compound 0.01581 µM
  relative viability: 0.437
NCI-H1755; first compound 0.05 µM
  relative viability: 0.571
NCI-H1755; first compound 0.1581 µM
  relative viability: 0.468
NCI-H1755; first compound 0.5 µM
  relative viability: 0.361
NCI-H1915; first compound 0.005 µM
  relative viability: 0.518
NCI-H1915; first compound 0.01581 µM
  relative viability: 0.467
NCI-H1915; first compound 0.05 µM
  relative viability: 0.504
NCI-H1915; first compound 0.1581 µM
  relative viability: 0.468
NCI-H1915; first compound 0.5 µM
  relative viability: 0.46
NCI-H1975; first compound 0.005 µM
  relative viability: 0.271
NCI-H1975; first compound 0.01581 µM
  relative viability: 0.285
NCI-H1975; first compound 0.05 µM
  relative viability: 0.283
NCI-H1975; first compound 0.1581 µM
  relative viability: 0.332
NCI-H1975; first compound 0.5 µM
  relative viability: 0.294
NCI-H2023; first compound 0.005 µM
  relative viability: 0.405
NCI-H2023; first compound 0.01581 µM
  relative viability: 0.216
NCI-H2023; first compound 0.05 µM
  relative viability: 0.255
NCI-H2023; first compound 0.1581 µM
  relative viability: 0.224
NCI-H2023; first compound 0.5 µM
  relative viability: 0.211
NCI-H2085; first compound 0.005 µM
  relative viability: 0.925
NCI-H2085; first compound 0.01581 µM
  relative viability: 0.964
NCI-H2085; first compound 0.05 µM
  relative viability: 0.872
NCI-H2085; first compound 0.1581 µM
  relative viability: 0.9
NCI-H2085; first compound 0.5 µM
  relative viability: 0.899
NCI-H2126; first compound 0.005 µM
  relative viability: 0.692
NCI-H2126; first compound 0.01581 µM
  relative viability: 0.684
NCI-H2126; first compound 0.05 µM
  relative viability: 0.691
NCI-H2126; first compound 0.1581 µM
  relative viability: 0.582
NCI-H2126; first compound 0.5 µM
  relative viability: 0.589
NCI-H3122; first compound 0.005 µM
  relative viability: 0.197
NCI-H3122; first compound 0.01581 µM
  relative viability: 0.222
NCI-H3122; first compound 0.05 µM
  relative viability: 0.198
NCI-H3122; first compound 0.1581 µM
  relative viability: 0.204
NCI-H3122; first compound 0.5 µM
  relative viability: 0.19
NCI-H322M; first compound 0.005 µM
  relative viability: 0.586
NCI-H322M; first compound 0.01581 µM
  relative viability: 0.621
NCI-H322M; first compound 0.05 µM
  relative viability: 0.588
NCI-H322M; first compound 0.1581 µM
  relative viability: 0.635
NCI-H322M; first compound 0.5 µM
  relative viability: 0.602
NCI-H358; first compound 0.005 µM
  relative viability: 0.181
NCI-H358; first compound 0.01581 µM
  relative viability: 0.18
NCI-H358; first compound 0.05 µM
  relative viability: 0.161
NCI-H358; first compound 0.1581 µM
  relative viability: 0.175
NCI-H358; first compound 0.5 µM
  relative viability: 0.176
NCI-H441; first compound 0.005 µM
  relative viability: 0.245
NCI-H441; first compound 0.01581 µM
  relative viability: 0.296
NCI-H441; first compound 0.05 µM
  relative viability: 0.246
NCI-H441; first compound 0.1581 µM
  relative viability: 0.249
NCI-H441; first compound 0.5 µM
  relative viability: 0.239
UMC-11; first compound 0.005 µM
  relative viability: 0.807
UMC-11; first compound 0.01581 µM
  relative viability: 0.698
UMC-11; first compound 0.05 µM
  relative viability: 0.718
UMC-11; first compound 0.1581 µM
  relative viability: 0.619
UMC-11; first compound 0.5 µM
  relative viability: 0.755

Source: the supplement of paper PMC10307832
